Data published in US4489163A, “rCRF and analogs” (The Salk Institute for Biological Studies, priority 1983, dated 1984).
pEC50: −log10 of the molar value. Entries after “also recorded” stand apart in the source; their conditions may differ.

Tests used:
[1] = activity and learning performance after administration into the ventricles; format: in vivo; conditions: administered into the ventricles, rats
Excerpt: Because ACTH and β-END secretion is the "sine qua non" of an animal's response to stress, it was not surprising that rCRF has significant effects on the brain as a mediator of the body's stress response. Accordingly, rCRF may also find application in modifying the mood, learning and behavior of normal and mentally disordered individuals. Because rCRF and its analogs elevate the levels of ACTH, β-END, β-lipotropin, other pro-opiomelanocortin gene products and corticosterone, its administration can be used to induce their effects on the brain and its periphery to thereby influence memory, mood, pain appreciation, etc., and more specifically, alertness, depression and/or anxiety.

[2] = lowering of blood pressure in dogs; format: in vivo
[3] = system: ACTH and β-endorphin-like (β-END-LI) secretion; test: ACTH and β-END-LI secretion in vivo after intravenous administration; set-up: species or system rats; conditions: for stimulation of ACTH and β-END-LI secretion in vivo (words): several rat preparations
Excerpt: (§1) The synthetic and the natural rCRF were examined for their effects on the secretion of ACTH and β-endorphin in vitro and the synthetic rCRF was also examined in vivo.

[4] = system: cultured rat pituitary cells; test: secretion of ACTH and β-endorphin by cultured rat pituitary cells in vitro; format: cell-based
Excerpt: as §1

[5] = lowering of blood pressure in rats; format: in vivo

SMILES: CC[C@H](C)[C@H](NC(=O)[C@@H](NC(=O)[C@H](CCC(=O)O)NC(=O)[C@H](CCSC)NC(=O)[C@H](CC(C)C)NC(=O)[C@H](CCCCN)NC(=O)[C@H](CCCNC(=N)N)NC(=O)[C@H](CC(N)=O)NC(=O)[C@H](CO)NC(=O)[C@H](Cc1c[nH]cn1)NC(=O)[C@H](C)NC(=O)[C@H](CCC(N)=O)NC(=O)[C@H](CCC(N)=O)NC(=O)[C@H](C)NC(=O)[C@H](CC(C)C)NC(=O)[C@H](CCC(N)=O)NC(=O)[C@H](CCC(=O)O)NC(=O)[C@H](C)NC(=O)[C@H](CCCNC(=N)N)NC(=O)[C@H](C)NC(=O)[C@H](CCSC)NC(=O)[C@H](CCC(=O)O)NC(=O)[C@H](CC(C)C)NC(=O)[C@@H](NC(=O)[C@H](CCC(=O)O)NC(=O)[C@H](CCCNC(=N)N)NC(=O)[C@H](CC(C)C)NC(=O)[C@H](CC(C)C)NC(=O)[C@H](Cc1c[nH]cn1)NC(=O)[C@H](Cc1ccccc1)NC(=O)[C@@H](NC(=O)[C@H](CC(C)C)NC(=O)[C@H](CC(=O)O)NC(=O)[C@H](CC(C)C)NC(=O)[C@H](CO)NC(=O)[C@@H](NC(=O)[C@@H]1CCCN1C(=O)[C@@H]1CCCN1C(=O)[C@H](CCC(=O)O)NC(=O)[C@H](CCC(=O)O)NC(=O)[C@@H](N)CO)[C@@H](C)CC)[C@@H](C)O)C(C)C)[C@@H](C)CC)C(N)=O [synthetic rCRF]
- activity [1]: increases activity
- learning performance [1]: improves learning performance
- lowering of blood pressure [2]: dramatic effect to lower blood pressure
- elevation of ACTH and β-endorphin-like (β-END-LI) secretion ([3]; in vivo doses from 30 ng to 3 μg/Kg of body weight): 5-20 fold
- stimulation of ACTH and β-END-LI secretion in vivo (words) [3]: stimulate ACTH and β-endorphin activies
- stimulation of ACTH and β-END-LI secretion in vivo (words) ([3]; listed as Synthetic rCRF): powerful stimulator of ACTH and β-END-LI secretion in vivo
- time plasma levels of ACTH and β-END-LI are elevated ([3]; intravenous, nembutal-anesthesized male rats and quiescent male or female rats with indwelling cannulae): 5 to 20 min
- pEC50 ([4]; concentration giving half-maximal response, cultured rat pituitary cells): ~10.00
- minimal response, secretion of ACTH and β-endorphin ([4]; concentration giving minimal response, cultured rat pituitary cells): about 10 picomolar
- maximal concentrations, secretory response at a plateau level ([4]; cultured rat pituitary cells): > 5 nM
- stimulation of secretion of ACTH and β-endorphin in vitro ([4]; in vitro): high potency; also recorded: stimulate ACTH and β-endorphin activies
- lowering of blood pressure ([5]; rats): dramatic effect to lower blood pressure
- lowering of blood pressure ([5]; species not given, general procedure of Example III): substantially lower blood pressure for an extended time period
